Results as given in patent US9561228B2 (Celgene Avilomics Research, Inc., priority 2013, dated 2017).

Columns and labels:
[1] = test system: ERK1/2 phosphorylation of p90RSK in HT29 cells; assay: pRSK MSD Assay in HT29 cells; assay type: cell-based; conditions: Homo sapiens, HT-29, read-out: ERK1/ERK2 PRSK MSD HT29 EC50
Outline: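 Serum-starved HT29 cells (0.1% FBS overnight) treated with test compound for 120 min at 37° C, then lysed with protease and phosphatase inhibitors. Phospho-p90RSK quantified by MSD sandwich immunoassay: RSK capture antibody, phospho-RSK detection antibody plus Sulfo-tagged antibody, electrochemiluminescence read.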

[2] = test system: HCT116 cells (colorectal carcinoma); assay: Inhibition of cancer cell proliferation, HCT116 (CellTiterGlo, 72 hours); assay type: cell-based; conditions: Homo sapiens, HCT-116
Description: Measurement of Inhibition of Cancer Cell Proliferation (HCT116/Colorectal Carcinoma)
The following protocol used a HCT116 cell line, which cell line is a model for colorectal carcinoma. HCT116 cells were split and 3000 cells in 100 μl of growth medium were added per well of a flat-bottom 96-well plate. A two-fold test compound solution in serum-free RPM1640 was made, starting at 5,000 nM. Then, 3-fold serial dilutions were made across the plate from well 1 to well 11. Well 12, the last well in a row on the plate, was left as untreated control. 100 μl compound solutions were then transferred to the wells, so the total volume of media was 200 μl per well. Plates were returned to a 37° C. incubator, and the cells were cultured for 72 hours. To measure cell proliferation after 72 hours, media was discarded from the plates, 50 μl/well of fresh medium was added, and 50 μl CellTiterGlo solution was added (Promega Cat#G7573). The plate was covered with a dark lid and incubated for 10 min. A white sealing tape was applied to the bottom of the plate, and the plate was read in a luminescence plate reader. […] 50 μl CellTiterGlo was added per well, and the plate was read in a luminescence plate reader after 10 min. The reading was plotted vs. cell number to generate a standard curve and the equation of the curve fit. The compound-treated sample luminescence readings were converted to cell numbers using the curve-fit equation. The percent of inhibition, using untreated control as 100% growth, was then calculated. GI50 was then calculated by GraphPad Prism.

[3] = test system: HT-29 cells (colorectal adenocarcinoma); assay: Inhibition of cancer cell proliferation, HT-29 (CellTiterGlo, 72 hours); assay type: cell-based; conditions: Homo sapiens
Outline: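 HT-29 cells seeded at 3000/well, then treated with 3-fold serial dilutions from a 5,000 nM two-fold solution in serum-free RPMI1640, untreated wells as control, for 72 h at 37° C. CellTiterGlo luminescence converted to cell number via a standard curve; GI50 from percent inhibition versus untreated growth.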

[4] = test system: A375 cells (malignant melanoma); assay: Inhibition of cancer cell proliferation, A375 (CellTiterGlo, 72 hours); assay type: cell-based; conditions: Homo sapiens, A-375
Outline: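 A375 melanoma cells, 3000/well, exposed 72 h at 37 °C to compound in 3-fold serial dilutions (solution added as 2× stock starting at 5,000 nM in serum-free DMEM). CellTiterGlo luminescence converted to cell number via standard curve; % inhibition vs untreated control, GI50 from curve fit.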

Erk1 = target: T1, Erk1 (Homo sapiens, UniProt P27361); assay: Protein Mass Modification Assay (intact protein MALDI, 60 min, 10-fold excess of compound); assay type: binding
T1 construct: purchased Millipore 14-439
T1 sequence (P27361 whole entry): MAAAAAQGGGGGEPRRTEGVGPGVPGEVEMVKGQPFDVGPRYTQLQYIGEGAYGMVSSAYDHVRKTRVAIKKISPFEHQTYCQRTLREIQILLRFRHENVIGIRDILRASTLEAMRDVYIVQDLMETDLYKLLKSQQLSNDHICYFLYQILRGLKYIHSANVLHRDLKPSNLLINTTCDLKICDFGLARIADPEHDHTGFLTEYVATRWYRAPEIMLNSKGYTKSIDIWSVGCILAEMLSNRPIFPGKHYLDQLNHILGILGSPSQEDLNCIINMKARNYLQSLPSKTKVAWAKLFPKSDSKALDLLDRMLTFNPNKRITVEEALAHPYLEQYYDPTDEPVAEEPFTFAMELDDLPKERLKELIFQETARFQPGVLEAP
Description: Protein Mass Modification Assay
Intact protein: Erk1 from Millipore (Cat. No. 14-439) was incubated for 60 min. at room temperature with a 10-fold excess of test compound to protein. 4 μL aliquots of the resulting mixture were diluted with 15 μL of 0.2% TFA prior to micro C4 ZipTipping directly onto the MALDI target using sinapinic acid as the desorption matrix (10 mg/ml in 0.1% TFA:Acetonitrile 50:50, v/v). The centroid mass of the target protein in the control sample was compared with the centroid mass of the target protein incubated with compound. A shift in the centroid mass of the treated protein compared to the untreated protein was divided by the molecular weight of the compound. This number corresponds to the percentage of modified protein after one hour incubation. Results from this assay are reported in Table A under the column “ERK1 Mass Mod (%).”

[5] = test system: ERK1/2 phosphorylation of p90RSK in A375 cells; assay: Detection of total and phosphor-RSK by MSD ELISA (A375); assay type: cell-based; conditions: Homo sapiens, A-375, read-out: ERK1/ERK2 PRSK A375 EC50
Outline: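 A375 cells serum-starved overnight in DMEM/0.1% FBS, then treated 2 h at 37° C with compound (1000× DMSO dilutions into medium). Lysates captured on RSK antibody-coated MSD plates; phospho-RSK (Ser380) and total RSK detected with SulfoTag secondary antibodies by electrochemiluminescence.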

[6] = test system: ERK1/2 phosphorylation of p90RSK in HCT116 cells; assay: Detection of total and phospho-RSK by MSD ELISA (HCT116); assay type: cell-based; conditions: Homo sapiens, HCT-116, read-out: ERK1/ERK2 PRSK HCT116 EC50
Outline: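 HCT116 cells treated with compound in RPMI/10% FBS for 2 h at 37° C, then lysed. Phospho-RSK (Ser380) and total RSK in lysates measured by MSD sandwich electrochemiluminescence ELISA as a readout of ERK1/2 activity.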

Structure (SMILES) | EC50 [1] [nM] | GI50 [2] [nM] | GI50 [3] [nM] | GI50 [4] [nM] | ERK1 Mass Mod (%) (Erk1) | EC50 [5] [nM] | EC50 [6] [nM]
C=CC(=O)Nc1cc(C)ccc1Nc1nc(N[C@H]2CCCN(C(=O)CO)C2)ncc1C(F)(F)F [Compound I-20, (S)—N-(2-((2-((1-(2-Hydroxyacetyl)piperidin-3-yl)amino)-5-(trifluoromethyl)pyrimidin-4-yl)amino)-5-methylphenyl)acrylamide] | < 100 | < 100 | < 100 | < 100 | – | – | –
C=CC(=O)Nc1ccccc1Nc1nc(N[C@H]2CCC[C@@H](C(N)=O)C2)ncc1C(F)(F)F [Compound I-118, (1R,3S)-3-((4-((2-acrylamidophenyl)amino)-5-(trifluoromethyl)pyrimidin-2-yl)amino)cyclohexanecarboxamide] | < 100 | – | 101 to 500 | 101 to 500 | E (a mass modification of ≧70%) | – | –
C=CC(=O)Nc1cc(C)ccc1Nc1nc(N[C@H]2CCCN(C(C)=O)C2)ncc1C(F)(F)F [Compound I-19, (S)—N-(2-((2-((1-Acetylpiperidin-3-yl)amino)-5-(trifluoromethyl)pyrimidin-4-yl)amino)-5-methylphenyl)acrylamide] | < 100 | < 100 | < 100 | < 100 | – | – | –
C=CC(=O)Nc1cc(C)ccc1Nc1nc(N[C@H]2CCCN(C(=O)CF)C2)ncc1C(F)(F)F [Compound I-43, (S)—N-(2-((2-((1-(2-Fluoroacetyl)piperidin-3-yl)amino)-5-(trifluoromethyl)pyrimidin-4-yl)amino)-5-methylphenyl)acrylamide] | – | – | – | < 100 | E (a mass modification of ≧70%) | – | –
C=CC(=O)Nc1cc(OC)ccc1Nc1nc(Nc2cc(C(N)=O)ccc2C)ncc1Cl [Compound I-237, 3-((4-((2-acrylamido-4-methoxyphenyl)amino)-5-chloropyrimidin-2-yl)amino)-4-methylbenzamide] | 101 to 500 | 501 to 999 | < 100 | < 100 | – | – | –
C=C(F)C(=O)Nc1ccccc1Nc1nc(N[C@H]2CCCN(C(C)=O)C2)ncc1C(F)(F)F [Compound I-55, (S)—N-(2-((2-((1-Acetylpiperidin-3-yl)amino)-5-(trifluoromethyl)pyrimidin-4-yl)amino)phenyl)-2-fluoroacrylamide] | 101 to 500 | 101 to 500 | < 100 | < 100 | – | – | –
C=CC(=O)Nc1ccccc1Nc1nc(N[C@H]2CCCN(C(C)=O)C2)ncc1C(F)(F)F [Compound I-10, (S)—N-(2-(2-(1-acetylpiperidin-3-ylamino)-5-(trifluoromethyl)pyrimidin-4-ylamino)phenyl)acrylamide] | < 100 | < 100 | < 100 | < 100 | – | – | –
C=CC(=O)Nc1ccccc1Nc1nc(N[C@H]2CCCN(C(=O)CO)C2)ncc1Cl [Compound I-123, (S)—N-(2-((5-chloro-2-((1-(2-hydroxyacetyl)piperidin-3-yl)amino)pyrimidin-4-yl)amino)phenyl)acrylamide] | < 100 | < 100 | < 100 | < 100 | – | – | –

The next lines start with the values.

EC50 [1] [nM] | GI50 [2] [nM] | GI50 [3] [nM] | GI50 [4] [nM] | ERK1 Mass Mod (%) (Erk1) | EC50 [5] [nM] | EC50 [6] [nM] | Structure (SMILES)
501 to 999 | > 1000 | 501 to 999 | > 1000 | – | – | – | CCC(=O)Nc1ccccc1Nc1nc(N[C@H]2CCCN(C(=O)CO)C2)ncc1Cl [Compound I-311, (S)—N-(2-((5-chloro-2-((1-(2-hydroxyacetyl)piperidin-3-yl)amino)pyrimidin-4-yl)amino)phenyl)propionamide]
501 to 999 | – | – | – | E (a mass modification of ≧70%) | 501 to 999 | 101 to 500 | C=CC(=O)Nc1cc(C(=O)N2CCN(C(=O)CO)CC2)ccc1Nc1nc(Nc2cc(OC)ncc2C)ncc1C(F)(F)F [Compound I-402, N-(5-(4-(2-hydroxyacetyl)piperazine-1-carbonyl)-2-((2-((2-methoxy-5-methylpyridin-4-yl)amino)-5-(trifluoromethyl)pyrimidin-4-yl)amino)phenyl)acrylamide]
< 100 | 101 to 500 | < 100 | 101 to 500 | – | – | – | C=CC(=O)Nc1cc(C)ccc1Nc1nc(Nc2cc(OC)ncc2C)ncc1Cl [Compound I-241, N-(2-((5-chloro-2-((2-methoxy-5-methylpyridin-4-yl)amino)pyrimidin-4-yl)amino)-5-methylphenyl)acrylamide]
< 100 | 101 to 500 | < 100 | < 100 | – | – | – | C=CC(=O)Nc1ccccc1Nc1nc(Nc2cc(OC)ncc2C)ncc1Cl [Compound I-240, N-(2-((5-chloro-2-((2-methoxy-5-methylpyridin-4-yl)amino)pyrimidin-4-yl)amino)phenyl)acrylamide]
> 1000 | – | – | – | E (a mass modification of ≧70%) | > 1000 | > 1000 | C=CC(=O)Nc1cc(C)ccc1Nc1nc(Nc2cc(O)ncc2C)ncc1C(F)(F)F [Compound I-365, N-(2-((2-((2-hydroxy-5-methylpyridin-4-yl)amino)-5-(trifluoromethyl)pyrimidin-4-yl)amino)-5-methylphenyl)acrylamide]
101 to 500 | – | – | – | G (a mass modification ≦30%) | 501 to 999 | 501 to 999 | C=CC(=O)Nc1cc(C)ccc1Nc1nc(Nc2cc(OC)ncn2)ncc1C(F)(F)F [Compound I-348, N-(2-((2-((6-methoxypyrimidin-4-yl)amino)-5-(trffluoromethyl)pyrimidin-4-yl)amino)-5-methylphenyl)acrylamide]
> 1000 | – | – | – | E (a mass modification of ≧70%) | > 1000 | > 1000 | C=CC(=O)Nc1cc(C)ccc1Nc1nc(Nc2nc(O)ncc2Cl)ncc1C(F)(F)F [Compound I-363, N-(2-((2-((5-chloro-2-hydroxypyrimidin-4-yl)amino)-5-(trifluoromethyl)pyrimidin-4-yl)amino)-5-methylphenyl)acrylamide]
– | > 1000 | 501 to 999 | 501 to 999 | – | – | – | C=CC(=O)Nc1cc(Cl)ccc1Nc1nc(Nc2cc(OC)ncc2C)ncc1Cl [Compound I-248, N-(5-chloro-2-((5-chloro-2-((2-methoxy-5-methylpyridin-4-yl)amino)pyrimidin-4-yl)amino)phenyl)acrylamide]
< 100 | – | < 100 | 101 to 500 | E (a mass modification of ≧70%) | – | – | C=CC(=O)Nc1ccccc1Nc1nc(N[C@H]2CCC[C@@H](C(N)=O)C2)ncc1Cl [Compound I-120, (1R,3S)-3-((4-((2-acrylamidophenyl)amino)-5-chloropyrimidin-2-yl)amino)cyclohexanecarboxamide]
< 100 | – | – | – | E (a mass modification of ≧70%) | 101 to 500 | 101 to 500 | C=CC(=O)Nc1cc(OCC(=O)N2CCN(c3ncccn3)CC2)ccc1Nc1nc(Nc2cc(OC)ncc2C)ncc1C(F)(F)F [Compound I-403, N-(2-((2-((2-methoxy-5-methylpyridin-4-yl)amino)-5-(trifluoromethyl)pyrimidin-4-yl)amino)-5-(2-oxo-2-(4-(pyrimidin-2-yl)piperazin-1-yl)ethoxy)phenyl)acrylamide]
